Reference: patent US11572590B2, “Methods for evaluating tumor cell spheroids using 3D microfluidic cell culture device” (Dana-Farber Cancer Institute, Inc., priority 2017, dated 2023)
Like-named read-outs stand apart in the source and are kept apart here.

Experiments:
Assay in all cases: SelectScreen Kinase Profiling, single point inhibition and IC50 for off-target kinases
Type in all cases: biochemical
off-target kinases [1] = target: T1, off-target kinases (Homo sapiens, UniProt P51813); details: BMX, ZLYTE, ATP Km app
T1 sequence (P51813 1-675): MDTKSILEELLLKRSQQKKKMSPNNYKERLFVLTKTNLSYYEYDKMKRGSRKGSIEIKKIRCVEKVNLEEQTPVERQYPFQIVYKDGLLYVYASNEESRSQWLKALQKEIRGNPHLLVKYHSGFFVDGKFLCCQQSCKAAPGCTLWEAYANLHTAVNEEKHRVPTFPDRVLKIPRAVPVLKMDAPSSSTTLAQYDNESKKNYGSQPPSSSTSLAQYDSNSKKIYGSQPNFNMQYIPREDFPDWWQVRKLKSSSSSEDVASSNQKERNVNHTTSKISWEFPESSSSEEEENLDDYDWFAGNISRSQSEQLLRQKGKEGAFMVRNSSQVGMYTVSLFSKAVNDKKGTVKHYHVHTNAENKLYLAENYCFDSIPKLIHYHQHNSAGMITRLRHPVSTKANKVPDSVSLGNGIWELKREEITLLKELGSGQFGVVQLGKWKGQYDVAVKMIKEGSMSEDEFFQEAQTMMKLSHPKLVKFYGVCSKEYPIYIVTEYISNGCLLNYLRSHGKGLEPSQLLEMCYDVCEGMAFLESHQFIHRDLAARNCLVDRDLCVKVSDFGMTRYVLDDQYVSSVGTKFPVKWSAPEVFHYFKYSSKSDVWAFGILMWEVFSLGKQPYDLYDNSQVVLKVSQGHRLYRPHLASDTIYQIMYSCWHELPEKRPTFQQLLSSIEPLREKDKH

off-target kinases [2] = target: T2, off-target kinases (Homo sapiens, UniProt Q9HBY8); details: SGK2, ZLYTE, ATP Km app
T2 sequence (Q9HBY8 1-367): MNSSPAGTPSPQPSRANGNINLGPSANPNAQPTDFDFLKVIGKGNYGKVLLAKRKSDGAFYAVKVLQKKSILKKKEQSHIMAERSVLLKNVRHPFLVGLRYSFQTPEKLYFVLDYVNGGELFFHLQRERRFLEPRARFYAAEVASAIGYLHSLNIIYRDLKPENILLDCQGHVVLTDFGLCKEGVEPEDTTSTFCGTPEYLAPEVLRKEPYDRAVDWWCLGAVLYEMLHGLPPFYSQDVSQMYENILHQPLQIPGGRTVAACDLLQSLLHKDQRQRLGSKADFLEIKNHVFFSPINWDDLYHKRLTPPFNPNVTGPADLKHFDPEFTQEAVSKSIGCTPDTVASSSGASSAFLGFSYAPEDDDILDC

off-target kinases [3] = target: off-target kinases (Homo sapiens, UniProt Q9UM73, R1275Q); details: ALK R1275Q (mutant), LanthaScreen Binding
off-target kinases (Homo sapiens, UniProt Q9UM73, R1275Q), sequence (Q9UM73 19-1620 R1275Q): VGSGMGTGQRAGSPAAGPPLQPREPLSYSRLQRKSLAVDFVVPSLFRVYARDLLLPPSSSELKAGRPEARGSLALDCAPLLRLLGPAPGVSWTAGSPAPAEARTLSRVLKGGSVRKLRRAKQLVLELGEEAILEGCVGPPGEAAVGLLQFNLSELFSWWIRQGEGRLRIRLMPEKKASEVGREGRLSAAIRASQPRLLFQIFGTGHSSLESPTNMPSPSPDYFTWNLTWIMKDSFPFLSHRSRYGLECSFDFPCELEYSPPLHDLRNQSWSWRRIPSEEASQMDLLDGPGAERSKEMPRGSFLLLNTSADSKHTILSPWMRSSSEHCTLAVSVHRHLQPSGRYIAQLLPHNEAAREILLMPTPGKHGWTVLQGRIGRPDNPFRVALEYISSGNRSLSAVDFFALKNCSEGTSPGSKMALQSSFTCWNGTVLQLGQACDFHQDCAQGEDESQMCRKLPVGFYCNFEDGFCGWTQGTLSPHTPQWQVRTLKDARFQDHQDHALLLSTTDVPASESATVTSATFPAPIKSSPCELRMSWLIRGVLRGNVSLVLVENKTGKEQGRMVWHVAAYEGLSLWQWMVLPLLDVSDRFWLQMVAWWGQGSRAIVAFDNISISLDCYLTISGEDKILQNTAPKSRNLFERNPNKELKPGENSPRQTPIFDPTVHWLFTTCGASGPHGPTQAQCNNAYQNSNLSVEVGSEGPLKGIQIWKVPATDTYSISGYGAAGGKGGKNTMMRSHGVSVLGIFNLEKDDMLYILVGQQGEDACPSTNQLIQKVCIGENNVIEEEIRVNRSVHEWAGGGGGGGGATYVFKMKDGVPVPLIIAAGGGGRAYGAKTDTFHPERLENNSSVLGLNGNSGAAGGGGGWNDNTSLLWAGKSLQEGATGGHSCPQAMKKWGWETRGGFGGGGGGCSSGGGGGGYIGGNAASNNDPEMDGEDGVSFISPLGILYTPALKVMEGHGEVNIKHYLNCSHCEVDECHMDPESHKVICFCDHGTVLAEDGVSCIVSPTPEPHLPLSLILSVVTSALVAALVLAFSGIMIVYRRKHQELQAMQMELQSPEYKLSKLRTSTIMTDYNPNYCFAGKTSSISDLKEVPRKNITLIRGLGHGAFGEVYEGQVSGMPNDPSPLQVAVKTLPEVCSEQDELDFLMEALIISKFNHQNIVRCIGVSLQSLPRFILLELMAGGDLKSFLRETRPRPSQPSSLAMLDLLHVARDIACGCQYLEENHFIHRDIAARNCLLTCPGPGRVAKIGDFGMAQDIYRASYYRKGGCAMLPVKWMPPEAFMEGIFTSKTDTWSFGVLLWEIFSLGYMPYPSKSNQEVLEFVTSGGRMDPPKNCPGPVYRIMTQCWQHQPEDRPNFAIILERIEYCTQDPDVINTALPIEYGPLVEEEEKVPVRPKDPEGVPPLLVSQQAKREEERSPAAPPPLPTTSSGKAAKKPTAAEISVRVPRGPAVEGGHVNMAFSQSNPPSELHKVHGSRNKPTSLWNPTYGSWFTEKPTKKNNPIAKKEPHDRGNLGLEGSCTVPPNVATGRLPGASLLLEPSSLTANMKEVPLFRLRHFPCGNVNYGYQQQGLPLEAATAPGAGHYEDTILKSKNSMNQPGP

`N#Cc1cc(-c2ncnc(Nc3ccc(N4CCN(C5COC5)CC4)cc3)n2)ccc1OC1CCOCC1` [Compound 1, 5-(4-((4-(4-(oxetan-3-yl)piperazin-1-yl)phenyl)amino)-1,3,5-triazin-2-yl)-2-((tetrahydro-2H-pyran-4-yl)oxy)benzonitrile] showed an inhibition (off-target kinases [1]; read-out: % Inhibition 1) of 12%, an inhibition (off-target kinases [1]; read-out: % Inhibition 2) of 13% and an inhibition (off-target kinases [1]; read-out: % Inhibition Avg) of 12%. It also gave an inhibition (off-target kinases [2]; read-out: % Inhibition 1) of 7%, an inhibition (off-target kinases [2]; read-out: % Inhibition 2) of 12% and an inhibition (off-target kinases [2]; read-out: % Inhibition Avg) of 10%. The inhibition (off-target kinases [3]; read-out: % Inhibition 1) was 0%, the inhibition (off-target kinases [3]; read-out: % Inhibition 2) was 7% and the inhibition (off-target kinases [3]; read-out: % Inhibition Avg) was 4%.
